Data as given in patent US11360104B2, “Microbial-based biosensors” (TRUSTEES OF BOSTON UNIVERSITY, priority 2017, dated 2022).
Where two headings read alike, the source gives them in different places.

Key:
[1] = tested on: Pimelobacter simplex; experiment: Solvent and steroid exposure growth curves
Source text: (§1) In order to identify steroid binding Transcription Factors, a whole transcriptome RNA sequencing (RNA-Seq) screen was developed (FIG. 7). The growth of Pimelobacter simplex bacteria was profiled with respect to the starting inoculation density, solvent toxicity, and the addition of steroids (FIG. 16). […] P. simplex bacteria were screened against the steroid solvents ethanol (EtOH) and dimethyl sulfoxide (DMSO). […] Steroid growth curves were similarly performed using a starting OD of 0.005 and constant solvent dosing with titrations of steroids. […] P. simplex bacteria were grown in the presence of 700 μM testosterone, 21.88 μM progesterone, 87.50 μM estrone, 21.88 μM 17β-estradiol, 21.88 μM hydrocortisone, or 175.00 μM aldosterone concentrations were selected for comparison.
In order to properly determine the doubling time of the strain, growth curves were performed. All growth curves were done in 100 μL per well volumes in 96 well flat clear bottom black polystyrene TC-treated microplates which were individually wrapped with a lid and sterile (Corning #3603). Measurements were done by an Infinite M200 Pro (TECAN) spectrophotometer at the temperature suited for P. simplex. Readings were performed over 96 cycles of 15 minutes each at 600 nm absorbance with 25 flashes in a 3×3 (XY-Line) type reads per well. In between reads there was orbital shaking at 150 rpm frequency for a total of 10 minutes. In order to characterize the growth alone, a ½ serial dilution of 9 concentrations from 0.5-0.0020 OD600 nm were prepared in the respective media. Then each concentration was measured as previously described using a microplate reader (TECAN) and normalized against a media background control in technical triplicate. Afterward, an appropriate starting concentration of cells was chosen with a substantially long lag-phase, linear log phase, and a plateau of stationary-phase.
Once an appropriate starting cell concentration was chosen, a secondary growth curve was performed to test the toxicity levels of the solvents used to dissolve steroids of interest. Since the steroids used are heavily hydrophobic, they often need to be dissolved in organic solvents such as DMSO or ethanol which are toxic to bacteria at high concentrations. P. simplex was incubated under microplate reader conditions previously mentioned at a starting OD determined by the first growth curve with DMSO, ethanol, or H2O at ½ serial dilutions for a total of eight concentrations (50-0.39%) tested in technical triplicate. Two controls were included per solvent; a positive control without solvent and a media control which allowed for appropriate normalization. Solvent exposure growth curves allowed for choosing the maximum amount of solvent concentration that strains would sustain while maintaining relative viability in order to determine a range of steroid concentrations which could be used.
A tertiary growth curve was performed to test the toxicity levels of steroid specific to P. simplex. The strain was incubated under microplate reader conditions previously mentioned at a starting OD determined by the first growth curve and the highest solvent concentration corresponding to the steroid of interest with steroid at ½ serial dilutions for a total of seven concentrations tested in singlet. Testosterone, progesterone, 17β-estradiol, hydrocortisone, and aldosterone were all dissolved in ethanol while estrone was dissolved in DMSO. Three controls were included for each steroid; a positive control with the highest tolerable solvent concentration (%), a positive control with media, and a media control which allowed for normalization. Steroid exposure growth curves allowed for choosing the maximum amount of steroid concentration that P. simplex would sustain while maintaining relative viability.

[2] = tested on: steroid responsive genome island (SRGI); experiment: Whole transcriptome RNA-Seq of steroid treated P. simplex; assay type: cell-based, Pimelobacter simplex; conditions: P. simplex exposed to steroid vs solvent control, Log2 fold change
Source text: as §1
(§2) Using accession gene tags, genes were annotated for steroid relevant enzymes or transcription factors. […] Allosteric TF binding sequences are often palindromes and typically located near the start of its gene location in an intergenic space. With such a design, the allosteric TF can regulate itself or the open reading frame (ORF) near it in response to its effector molecule. […] Once identified, the TFs were cloned and recombinantly expressed for thorough characterization.
(§3) Cells were grown in 6 mL volumes of media at the OD, solvent, and steroid concentrations found from the growth curves in 14 mL polypropylene round-bottom tubes (Corning #352059) in technical duplicate. The same controls as in the steroid exposure growth curve were used for setting up RNA extraction samples. The cells were incubated at their corresponding temperature with continuous orbital shaking at 150 rpm until the end of lag-phase, mid-log phase, or stationary phase from the start of inoculation. Afterward, samples were removed and a 1:1 ratio of RNAprotect Bacteria Reagent (Qiagen #76506) was added followed by spinning down at 4° C. for 10 minutes at 4000 g. Supernatant was removed and the pellet re-suspended in 300 μL of RNAprotect and transferred into 2.0 mL Safe-Lock Tubes (Eppendorf #3101). The samples were then spun down once again at 4° C. for 10 minutes at 10000 g. Once the supernatant has been removed the samples were placed on ice and ready for RNA extraction. RNA extraction was done by Qiacube (Qiagen #9001292) set to the RNeasy Protect Bacteria Mini Kit protocol of bacterial cell pellet with enzymatic lysis. Tube A was prepared as described except with the addition of 150 mg/mL lysozyme (Sigma-Aldrich #L6876) and 20 mg/mL proteinase K (Roche #03115879001) all diluted in 1xTE buffer. RNA samples were subsequently quantified using Qubit RNA HS Assay Kit (Thermo Fisher Scientific #Q32852) and analyzed using a RNA 6000 Pico Kit (Agilent 5067-1513) in a 2100 Bioanalyzer (Agilent G2939A). RNA samples were either immediately used for RNA-Seq library preparation or stored long-term at −80° C.
(§4) RNA-Seq libraries were then produced from these samples using a slightly modified ScriptSeq v2 RNA-Seq Library Preparation Kit (Illumina 455A/22124) ensuring use of unique index primers through ScriptSeq Index PCR Primers (Sets 1-4) 48 rxns/set (Illumina #SSIP1234).

[3] = tested on: P. simplex bacteria (steroid responsive genome island, SRGI); experiment: RNA-Seq screen of steroid treated P. simplex against solvent controls; assay type: cell-based, Pimelobacter simplex; conditions: Log2 fold change vs solvent control
Source text: as §1, §2, §3, §4

[4] = molecular target: PinR (Nocardioides simplex (Pimelobacter simplex), UniProt A0A0A1DUF2); experiment: Cross-reactivity assay of steroids using sensor 3; assay type: biochemical; conditions: for % cross-reactivity: relative to progesterone; for % cross-reactivity / P (slope of fit): sensor 3, HEPES 1×
Description: The cross-reactivity of progesterone regarding the different steroids was calculated with the following equation:
Description for a typical experiment, using a molar ratio of QD/TF/DNA=1/4/18.
50 uL of the sensor (QD/TF/DNA) was then splitted in 3×9 centrifuge tubes to which 10 uL of progesterone at the desired concentration is added. […] A 384 well plate was filled with 60 uL of each solution. The fluorescence intensity was monitored on a spectrofluorimeter from 535 nm to 800 nm exciting at 400 nm, equipped with a 450 nm long-pass filter in emission.

[5] = tested on: Pimelobacter simplex PinR (AIY20223.2; SEQ ID NO: 1), his-tagged (AIY-his6); experiment: QD-FRET steroid sensor (QD-PinR + DNA-Cy5), steroid-induced TF-DNA unbinding; assay type: biochemical
Description: Fluorescent spectra were analyzed using MATLAB (Mathworks) and were fitted with a sum of 2 Gaussians (D=QD: FWHM=27 nm, λmax=607 nm; A=DNA-Cy5: FWHM=40 nm, λmax=669 nm). The area of each Gaussian was extracted and FD and FA are obtained respectively for the fluorescence of QD (donor) and Cy5 (acceptor).
Raw dose-response curves were obtained by plotting FA/FD as a function of the steroid concentration. Sensor output is the normalization of the fluorescent spectra of the donor and acceptor according to the following equation: […]
Non-normalized dose-response were fitted with Origin Pro 8 software with the non-linear equation: […]
The cross-reactivity of progesterone regarding the different steroids was calculated with the following equation: […]
CdSe/CdS/ZnS QDs were coated with a zwitterionic polymer bearing histamine anchoring functions (P1, SI). Once the hydrophobic QDs were transferred into H2O using a biphasic ligand exchange, his-tagged TFs were self-assembled on the QD surface to produce the QD-TF. Addition of the double stranded, Cy5-labeled TF-binding sequence completed probe assembly as the oligo binds to the TF in the absence of progesterone (PRG). The molar ratios of the QD, TF, and DNA in the sensor were controlled through the stoichiometric ratios of the mixed parts.
Two fluorescent spectra were recorded, one from the QDs and one from the Cy5 due to the FRET.
First, the DNA1 (most binding sequence) has been used to build the first biosensor, named sensor 1. For this sensor, a ratio of QD/TF/DNA of 1/4/18 was chosen. […] In order to homogenize the fluorescent signals in between batches and different sensor variations, FA/FD was normalized to give the signal output. Signal output is then plotted against PRG concentration to give a dose-response curve (FIG. 9C) This curve was fitted with the non-linear equation XX to obtain the half-maximal inhibitory concentration (IC50) (Table 13).
Description for a typical experiment, using a molar ratio of QD/TF/DNA=1/4/18. QDs in (275 uL, 0.15 uM in HEPES 1×, pH 7.6 with 1% BSA) were mixed with AIY-his6 (275 uL, 0.6 uM in HEPES 1× pH 7.6) at room temperature for 45 min. Then, the double-stranded DNA labelled with a Cy5 fluorescent probe at the 3′ and 5′ ends (275 uL, 2.7 uM in HEPES 1× pH 7.6) was added to the mixture. After 30 min, 220 uL of HEPES 1× pH 7.5 and 330 uL of 5× binding buffer (25 mM MgCl2, 25% glycerol, and 250 mg/L Invitrogen™ UltraPure™ Salmon Sperm DNA in Tris-HCl 0.1M) were added and the mixture is left 15 more min at RT.
50 uL of the sensor (QD/TF/DNA) was then splitted in 3×9 centrifuge tubes to which 10 uL of progesterone at the desired concentration is added. As such, the final concentration of QD/TF/DNA for the measurements is 25 nM/100 nM/450 nM. A 384 well plate was filled with 60 uL of each solution. The fluorescence intensity was monitored on a spectrofluorimeter from 535 nm to 800 nm exciting at 400 nm, equipped with a 450 nm long-pass filter in emission.

[6] = P. simplex, starting OD 0.005, constant solvent

Sequence of PinR (A0A0A1DUF2 entry or part of it): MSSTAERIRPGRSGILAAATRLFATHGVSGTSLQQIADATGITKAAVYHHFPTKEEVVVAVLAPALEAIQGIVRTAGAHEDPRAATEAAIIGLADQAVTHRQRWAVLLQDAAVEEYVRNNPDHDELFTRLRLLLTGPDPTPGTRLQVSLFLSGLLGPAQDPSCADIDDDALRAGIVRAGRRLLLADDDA

C[C@]12CCC(=O)C=C1CC[C@@H]1[C@@H]2[C@@H](O)C[C@]2(C=O)[C@@H](C(=O)CO)CC[C@@H]12 [ALD, Aldosterone]
highest steroid concentration exhibiting normal growth profile [1]: 175.00 µM
upregulation of genes inside the SRGI [2]: observed
upregulation of genes inside the SRGI (in words) [3]: upregulation of genes inside the SRGI were observed
IC50 [4]: 289 ± 36 nM
% cross-reactivity [4]: 20 ± 2%
P (slope of fit) [4]: 1.65 ± 0.28

C[C@]12CCC(=O)C=C1CC[C@@H]1[C@@H]2[C@@H](O)C[C@@]2(C)[C@H]1CC[C@]2(O)C(=O)CO [CRT, Hydrocortisone]
highest steroid concentration exhibiting normal growth profile [1]: 21.88 µM
upregulation of genes inside the SRGI [2]: observed
upregulation of genes inside the SRGI (in words) [3]: upregulation of genes inside the SRGI were observed
IC50 [4]: 180 ± 19 nM
% cross-reactivity [4]: 33 ± 3%
P (slope of fit) [4]: 1.23 ± 0.13

C[S+](C)[O-] [DMSO, dimethyl sulfoxide]
highest solvent concentration that did not produce a physiological change in growth ([1]; P. simplex vs solvent-free control): 0.35 % by volume

C[C@]12CC[C@@H]3c4ccc(O)cc4CC[C@H]3[C@@H]1CC[C@@H]2O [ESD, 17β-Estradiol]
effect on sensor binding/unbinding (in words) ([5]; QD:TF:oligo 1:4:6, [QD]=50 nM): no impact on the sensor binding/unbinding
upregulation of genes inside the SRGI (in words) [3]: not when exposed to 17β-estradiol and estrone

C[C@]12CC[C@@H]3c4ccc(O)cc4CC[C@H]3[C@@H]1CCC2=O [ESN, Estrone]
cross-reactivity (in words) ([5]; sensor 3 in HEPES 1×, 0 to 10 uM steroid): No cross-reactivity was observed
highest steroid concentration exhibiting normal growth profile [1, 6]: 87.50 µM
upregulation of genes inside the SRGI (in words) [3]: not when exposed to 17β-estradiol and estrone

CCO [EtOH, ethanol]
highest solvent concentration that did not produce a physiological change in growth [1]: 0.70 % by volume

C[C@]12CC[C@H]3[C@@H](CCC4=CC(=O)CC[C@@]43C)[C@@H]1CC[C@@H]2O [testosterone, Testosterone]
highest steroid concentration exhibiting normal growth profile [1, 6]: 700 µM
upregulation of genes inside the SRGI [2]: observed
upregulation of genes inside the SRGI (in words) [3]: upregulation of genes inside the SRGI were observed
